Measured values taken from patent US8609852B2, “Thiazolyl mGluR5 antagonists and methods for their use” (Merck Sharp & Dohme Corp., priority 2004, dated 2013).

Key:
[1] = target: metabotropic glutamate receptor subtype 5 (Rattus norvegicus (Rat), UniProt P31424); test: [3H]-mGluR5 Antagonist Binding to Rodent Brain Membranes
Experimental: In accordance with Anderson J J, Rao S P, Rowe B, Giracello D R, Holtz G, Chapman D F, Tehrani L, Bradbury M J, Cosford N D, Varney M A, [^3H]Methoxymethyl-3-[(2-methyl-1,3-thiazol-4-yl)ethynyl]pyridine binding to metabotropic glutamate receptor subtype 5 in rodent brain: in vitro and in vivo characterization. J Pharmacol Exp Ther. 2002 December; 303 (3):1044-51, membranes were prepared (as described in Ransom R W and Stec N L (1988) Cooperative modulation of [^3H]MK-801 binding to the N-methyl-D-aspartate receptor-ion channel complex by L-glutamate, glycine, and polyamines. J Neurochem 51:830-836) using whole rat brain, or mGlu5^+/+ or mGlu5^−/− whole mouse brain.
Binding assays were performed as described in Schaffhauser H, Richards J G, Cartmell J, Chaboz S, Kemp J A, Klingelschmidt A, Messer J, Stadler H, Woltering T and Mutel V (1998) In vitro binding characteristics of a new selective group II metabotropic glutamate receptor radioligand, [^3H]LY354740, in rat brain. Mol Pharmacol 53:228-233) at room temperature with slight modifications. Briefly, membranes were thawed and washed once with assay buffer (50 mM HEPES, 2 mM MgCl2, pH 7.4), followed by centrifugation at 40,000×g for 20 min. The pellet was resuspended in assay buffer and briefly homogenized with a Polytron.
For protein linearity experiments, increasing concentrations of membrane protein were added to 96-well plates in triplicate and binding was initiated by addition of 20 nM [^3H]methoxymethyl-3-[(2-methyl-1,3-thiazol-4-yl)ethynyl]pyridine. The assay was incubated for 2 h and non-specific binding was determined using 10 μM MPEP. The binding was terminated by rapid filtration through glass-fiber filters (Unifilter-96 GF/B plate, Packard) using a 96-well plate Brandel cell harvester. Following addition of scintillant, the radioactivity was determined by liquid scintillation spectrometry. Protein measurements were performed by BioRad-DC Protein assay using bovine serum albumin as the standard.
Saturation binding experiments were performed in triplicate with increasing concentrations of [^3H]methoxymethyl-3-[(2-methyl-1,3-thiazol-4-yl)ethynyl]pyridine (1 pM to 100 nM). The time course of association was measured by the addition of 10 nM [^3H]methoxymethyl-3-[(2-methyl-1,3-thiazol-4-yl)ethynyl]pyridine to the membranes at different time points (0-240 min), followed by filtration. Dissociation was measured by the addition of 100 μM unlabeled methoxymethyl-3-[(2-methyl-1,3-thiazol-4-yl)ethynyl]pyridine at different time points to membranes previously incubated for 3 h with 10 nM [^3H]methoxymethyl-3-[(2-methyl-1,3-thiazol-4-yl)ethynyl]pyridine. For competition experiments, 100 μg membrane protein and 10 nM [^3H]methoxymethyl-3-[(2-methyl-1,3-thiazol-4-yl)ethynyl]pyridine was added to wells containing increasing concentration of the test compound in duplicate (methoxymethyl-3-[(2-methyl-1,3-thiazol-4-yl)ethynyl]pyridine or MPEP). [^3H]-3-Methoxy-5-(pyridin-2-ylethynyl)pyridine may also be used as the radioligand in the procedure described above. (See, Cosford, N. D. P.; Roppe, J.; Tehrani, L.; Seiders, T. J.; Schweiger, E. J. et al. [3H]-Methoxymethyl-MTEP and [3H]-methoxy-PEPy): Potent and selective radioligands for the Metabotropic Glutamate Subtype 5 (mGlu5) Receptor. Bioorg. Med. Chem. Lett. 2003, 13, 351-354.)

[2] = target: hmGluR5a receptor (Homo sapiens (Human), UniProt P41594); test: Calcium Flux Assay; format: cell-based; details: hmGluR5a/L38-20 cells, glutamate-evoked [Ca2+]i
Experimental: The activity of compounds was examined against the hmGluR5a receptor stably expressed in mouse fibroblast Ltk− cells (the hmGluR5a/L38-20 cell line). See generally Daggett et al., Neuropharmacology 34:871-886 (1995). Receptor activity was detected by changes in intracellular calcium ([Ca^2+]i) measured using the fluorescent calcium-sensitive dye, fura-2. hmGluR5a/L38-20 cells were plated onto 96-well plates, and loaded with 3 µM fura-2 for 1 h. Unincorporated dye was washed from the cells, and the cell plate was transferred to a custom-built 96-channel fluorimeter (SIBIA-SAIC, La Jolla, Calif.) which is integrated into a fully automated plate handling and liquid delivery system. Cells were excited at 350 and 385 nm with a xenon source combined with optical filters. Emitted light was collected from the sample through a dichroic mirror and a 510 nm interference filter and directed into a cooled CCD camera (Princeton Instruments). Image pairs were captured approximately every 1 s, and ratio images were generated after background subtraction. After a basal reading of 20 s, an EC80 concentration of glutamate ([…]) was added to the well, and the response evaluated for another 60 s. The glutamate-evoked increase in [Ca^2+]i in the presence of the screening compound was compared to the response of glutamate alone (the positive control).

[3] = target: hmGluR5 (Homo sapiens (Human), UniProt P41594); test: Phosphatidylinositol Hydrolysis (IP) Assay; format: cell-based; details: hmGluR5/L38-20 cells
Experimental: Inositol phophate assays were performed as described by Berridge et al. (1982) (Berridge et al, (1982) Biochem. J. 206: 587-5950; and Nakajima et al., J. Biol. Chem. 267:2437-2442 (1992)) with slight modifications. Mouse fibroblast Ltk cells expressing hmGluR5 (hmGluR5/L38-20 cells) were seeded in 24-well plates at a density of 8×10^5 cells/well. […] of [^3H]-inositol (Amersham PT6-271; Arlington Heights, Ill.; specific activity=17.7 Ci/mmol) was added to each well and incubated for 16 h at 37° C. Cells were washed twice and incubated for 45 min in 0.5 ml of standard Hepes buffered saline buffer (HBS; 125 mM NaCl, 5 mM KCl, […] MgS04, 1.8 mM CaCl2, 20 mM HEPES, 6 mM glucose, pH to 7.4). The cells were washed with HBS containing 10 mM LiCl, and 400 ill buffer added to each well. Cells were incubated at 37° C. for 20 min. For testing, […], of 10× compounds used in the practice of the invention [made in HBS/LiCl (100 mM)] was added and incubated for 10 minutes. Cells were activated by the addition of […] glutamate, and the plates left for 1 hour at 37° C.
The incubations were terminated by the addition of 1 mL ice-cold methanol to each well. In order to isolate inositol phosphates (IPs), the cells were scraped from wells, and placed in numbered glass test tubes. […] Scintillant was added to each vial, and the vials shaken, and counted in a scintillation counter after 2 hours. […]

[4] = aqueous medium

hmGluR5a receptor, sequence (P41594 other isoform, or with tags, fused parts or gaps): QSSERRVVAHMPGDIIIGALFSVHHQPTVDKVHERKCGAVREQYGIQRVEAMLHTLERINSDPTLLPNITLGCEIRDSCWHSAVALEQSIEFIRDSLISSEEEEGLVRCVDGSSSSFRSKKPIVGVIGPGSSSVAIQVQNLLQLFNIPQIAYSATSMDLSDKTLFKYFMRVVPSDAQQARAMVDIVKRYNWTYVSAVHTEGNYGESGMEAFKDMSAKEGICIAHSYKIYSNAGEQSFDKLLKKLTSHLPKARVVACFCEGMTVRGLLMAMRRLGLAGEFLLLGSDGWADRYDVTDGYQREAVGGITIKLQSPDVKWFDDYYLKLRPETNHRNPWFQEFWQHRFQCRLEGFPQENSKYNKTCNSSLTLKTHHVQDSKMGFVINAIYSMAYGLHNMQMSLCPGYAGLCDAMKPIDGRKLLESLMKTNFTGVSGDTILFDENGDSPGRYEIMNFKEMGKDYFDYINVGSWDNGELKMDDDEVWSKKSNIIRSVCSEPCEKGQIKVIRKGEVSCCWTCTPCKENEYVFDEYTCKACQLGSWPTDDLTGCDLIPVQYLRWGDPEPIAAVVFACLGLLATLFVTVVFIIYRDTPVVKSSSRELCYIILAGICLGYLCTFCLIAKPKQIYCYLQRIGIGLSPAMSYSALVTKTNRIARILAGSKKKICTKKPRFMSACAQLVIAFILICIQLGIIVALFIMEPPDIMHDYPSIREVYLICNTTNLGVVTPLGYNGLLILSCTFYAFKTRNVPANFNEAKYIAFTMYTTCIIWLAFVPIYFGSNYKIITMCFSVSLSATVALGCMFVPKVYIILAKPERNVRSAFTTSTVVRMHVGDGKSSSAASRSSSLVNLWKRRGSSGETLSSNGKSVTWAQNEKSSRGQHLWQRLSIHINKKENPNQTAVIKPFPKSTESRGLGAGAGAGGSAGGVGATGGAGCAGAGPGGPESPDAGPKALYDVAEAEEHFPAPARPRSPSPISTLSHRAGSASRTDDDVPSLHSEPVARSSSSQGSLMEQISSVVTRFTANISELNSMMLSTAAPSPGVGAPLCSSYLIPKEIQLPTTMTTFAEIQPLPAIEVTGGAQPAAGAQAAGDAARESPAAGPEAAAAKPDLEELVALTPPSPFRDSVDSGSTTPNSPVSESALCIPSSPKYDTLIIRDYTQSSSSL
metabotropic glutamate receptor subtype 5, sequence (P31424 21-1203): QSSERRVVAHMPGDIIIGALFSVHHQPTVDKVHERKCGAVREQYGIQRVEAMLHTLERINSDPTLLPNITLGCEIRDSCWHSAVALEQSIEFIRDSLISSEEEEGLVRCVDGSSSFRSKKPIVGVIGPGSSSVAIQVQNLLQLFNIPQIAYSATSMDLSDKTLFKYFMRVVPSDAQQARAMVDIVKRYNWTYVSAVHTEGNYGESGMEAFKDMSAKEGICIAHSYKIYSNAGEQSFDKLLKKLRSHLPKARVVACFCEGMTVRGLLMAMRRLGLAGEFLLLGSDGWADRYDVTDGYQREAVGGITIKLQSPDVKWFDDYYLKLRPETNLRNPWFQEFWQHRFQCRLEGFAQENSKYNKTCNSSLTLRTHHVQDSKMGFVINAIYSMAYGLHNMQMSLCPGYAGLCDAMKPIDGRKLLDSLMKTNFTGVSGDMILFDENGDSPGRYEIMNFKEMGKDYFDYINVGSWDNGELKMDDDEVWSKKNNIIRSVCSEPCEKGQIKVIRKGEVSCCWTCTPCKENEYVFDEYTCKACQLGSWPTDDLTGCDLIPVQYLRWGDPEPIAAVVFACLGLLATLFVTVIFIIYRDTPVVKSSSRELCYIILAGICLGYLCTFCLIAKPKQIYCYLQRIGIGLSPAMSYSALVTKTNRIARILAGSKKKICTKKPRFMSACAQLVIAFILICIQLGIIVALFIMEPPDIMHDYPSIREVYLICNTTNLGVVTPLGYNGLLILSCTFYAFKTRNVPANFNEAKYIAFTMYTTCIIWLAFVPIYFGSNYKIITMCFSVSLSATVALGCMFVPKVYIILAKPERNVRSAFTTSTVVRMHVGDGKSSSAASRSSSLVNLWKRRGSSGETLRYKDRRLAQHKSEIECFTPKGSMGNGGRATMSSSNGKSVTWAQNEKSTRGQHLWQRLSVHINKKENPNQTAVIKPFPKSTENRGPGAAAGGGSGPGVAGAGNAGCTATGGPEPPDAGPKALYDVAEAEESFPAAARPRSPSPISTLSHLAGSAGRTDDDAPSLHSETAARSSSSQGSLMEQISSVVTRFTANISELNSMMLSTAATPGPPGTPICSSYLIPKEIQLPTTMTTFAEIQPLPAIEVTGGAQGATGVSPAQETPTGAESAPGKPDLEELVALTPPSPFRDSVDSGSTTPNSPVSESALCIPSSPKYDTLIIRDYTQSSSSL
hmGluR5, sequence (P41594 other isoform, or with tags, fused parts or gaps): as the sequence (P41594 other isoform, or with tags, fused parts or gaps) above

| Structure (SMILES) | Ki [1] [nM] | IC50 [2] [nM] | IC50 [3] [nM] | solubility [4] |
| --- | --- | --- | --- | --- |
| Cc1nc(C#Cc2ccc(-c3cc(F)cc(C#N)c3)nc2)cs1 [Example 1, 3-fluoro-5-{5-[(2-methyl-1,3-thiazol-4-yl)ethynyl]pyridin-2-yl}benzonitrile] | 20 | 3 | 33 |  |
| C(#Cc1nccs1)c1ccccc1.Cc1ccc(S(=O)(=O)O)cc1 [2-(phenylethynl)-1,3-thiazole] |  |  |  | soluble in aqueous medium |
| Cc1nc(C#Cc2cnc(C3CCCCC3)nc2)cs1 [Example 32, 2-cyclohexyl-5-[(2-methyl-1,3-thiazol-4-yl)ethynyl]pyrimidine] | 4.8 | 1 |  |  |
| Cc1nc(C#Cc2ccc(N3C4CCC3CC4)nc2)cs1 [Example 53] | 8 | 8 |  |  |
| Cc1nc(C#Cc2ccc(OC(C)(C)C)nc2)cs1 [Example 27, 2-tert-butoxy-5-[(2-methyl-1,3-thiazol-4-yl)ethynyl]pyridine] | 1 | 1.4 |  |  |
| Cc1nc(C#Cc2cnc(N3CCCCCC3)nc2)cs1 [Example 93] | 3 | 11 |  |  |
| Cc1nc(C#Cc2cncc(Cl)c2)cs1 [Example 90] | 4 | 1.5 |  |  |

Continued, in another order:

| Ki [1] [nM] | IC50 [2] [nM] | Structure (SMILES) | IC50 [3] [nM] | solubility [4] |
| --- | --- | --- | --- | --- |
| 19.3 | 4.9 | Cc1nc(C#Cc2ccc(-n3ccc4ccncc43)nc2)cs1 [Example 18, 1-{5-[(2-methyl-1,3-thiazol-4-yl)ethynyl]pyridin-2-yl}-1H-pyrrolo[2,3-c]pyridine] | 2 |  |
| 3 | 3 | Cc1cncc(C#Cc2csc(C)n2)c1 [Example 80] |  |  |
| 4.5 | 5 | COCc1ccccc1-c1ccc(C#Cc2csc(C)n2)cn1 [Example 71] |  |  |
| 9 | 8 | Cc1nc(C#Cc2cnc(O[C@@H](C)c3ccccc3)nc2)cs1 [Example 95] |  |  |
| 12.2 | 2.9 | Cc1nc(C#Cc2ccc(C(C)(C)C)nc2)cs1 [Example 31, 2-tert-butyl-5-[(2-methyl-1,3-thiazol-4-yl)ethynyl]pyridine] |  |  |
| 15 | 18 | Cc1cc(C#N)cc(-c2ccc(C#Cc3csc(C)n3)cn2)c1 [Example 34] |  |  |
| 4 | 6 | Cc1nc(C#Cc2ccc(-c3cccc(C)c3C)nc2)cs1 [Example 63] |  |  |
| 23 | 2.3 | Cc1nc(C#Cc2cnc(N3CCSCC3)nc2)cs1 [Example 100] |  |  |
